Data from patent US20240148673A1 (priority 2016, published 2024).
Read-outs that look alike come from different tables or passages of the source.

Legend:
[1] = PBS (pH 7.4), n=6; cited from earlier work
[2] = in vivo, po, 6 mg
Experimental: The study compared various dose routes: sublingual (SL), per oral tablet (PO), subcutaneous (SC) and intravenous (IV). […] An Oral Irritation assessment was performed (SL film group): Predose (0) and 24 hr postdose by Draize scoring.

With `CNC[C@H](O)c1ccc(O)c(O)c1` [Epinephrine Bitartrate] the average flux (30 min, 16 mg/mL) was 0 μg/cm2*min, the average flux (45 min, 16 mg/mL) was 0.2604 μg/cm2*min and the average flux (60 min, 16 mg/mL) was 0.3125 μg/cm2*min. It also gave an average flux (120 min, 16 mg/mL) of 0.6727 μg/cm2*min, an average flux (180 min, 16 mg/mL) of 1.076 μg/cm2*min and an average flux (240 min, 16 mg/mL) of 1.029 μg/cm2*min. For the same compound, the average flux (300 min, 16 mg/mL) was 1.25 μg/cm2*min, the “Average Steady State flux” value (360 min, 4 mg/mL) was 0.167 ug/cm2*min and the “Average Steady State flux” value (360 min, 8 mg/mL) was 0.466 ug/cm2*min. The “Average Steady State flux” value (360 min, 16 mg/mL) was 1.317 ug/cm2*min, the average flux (360 min, 16 mg/mL) was 1.385 μg/cm2*min and the “Average Steady State flux” value (360 min, 100 mg/mL) was 2.942 ug/cm2*min.

For `CC(C)NCC(O)COc1cccc2ccccc12` (centres unmarked) [PP], the “C0 of saturated solution” value [1] is listed as 588005 ± 5852 µg/mL.

For `CNC[C@H](O)c1ccc(OC(=O)C(C)(C)C)c(OC(=O)C(C)(C)C)c1` (racemic) [dipivefrin], the “DIPI Tmax” value [2] was 0 h.
